Test results reported in US12398121B2 (Nuvation Bio Inc., priority 2018, dated 2025).
Where two headings read alike, the source gives them in different places.

Key:
HT-29 cells = assay: Cell proliferation assay (CellTiter Glo), HT-29; format: cell-based; conditions: Homo sapiens, HT-29, 72 h, read-out: HT-29 IC50
Method: (§1) IC50 values were calculated and graphed using the model “log(inhibitor) vs. response—Variable slope” included in GraphPad Prism 5 (San Diego, CA). The Ki values were further calculated using the equation below where [L] was the radioligand concentration (1 nM) using in this study. Kd value was 0.332 nM. Ki=IC50/(1+[L]/Kd) c. AR transactivation: Human AR cloned into a CMV vector backbone was used for the transactivation study. HEK-293 cells were plated at 80,000 cells per well of a 24 well plate in DME+5% csFBS. Twenty four hours later, the cells were transfected using Lipofectamine (Invitrogen, Carlsbad, CA) with 0.25 μg GRE-LUC, 0.01 μg CMV-LUC (renilla luciferase) and 25 ng of the AR in OPTIMEM medium. The cells were treated 24 hrs after transfection with various ligands (10^−12 to 10^−5 M final concentrations) and luciferase assay were performed 48 hours after transfection. Firefly values were normalized to renilla luciferase values and the values were represented as relative light units (RLU). Agonist and antagonist assays for the test article were performed in the absence and in the combination with 0.1 nM R1881, respectively. Data were represented as EC50 (for agonists) and IC50 (for antagonists) obtained from four parameter logistics curve. Cell culture and proliferation assays: LNCaP, PC-3, 22RV1, MCF-7, HT-29, and HCT-116 cells were procured from American Type Culture Collection (ATCC). Cells were cultured in medium recommended by the ATCC. Cell culture medium was obtained from Fisher scientific (Waltham, MA) and serum was obtained from Hyclone (San Angelo, TX).
Cells were plated at varying density in the respective growth medium in 96 well plates. 24 hr later, cells were treated, in triplicate or quadruplicate, with test articles prepared in a range of concentrations by series dilution of DMSO stock solutions in growth medium and incubated for three to seven days. The number of viable 22RV1 and HT-29 cells was measured using CellTiter Glo assay (CTG, Promega, Madison, WI) after three days of treatment. The other types of cancer cells were re-treated at three or four days and the number of viable cells was measured using CTG assay after a total treatment time of six or seven days. Cell viability data were plotted using GraphPad Prism (GraphPad Software, Inc., San Diego, CA). In addition, a nonlinear regression model with a sigmoidal dose response and variable slope within GraphPad Prism was used to calculate the IC50 value of individual test articles. Additional cell proliferation assays: Other cancer cell lines are tested in a cell proliferation assay. For example, SK-OV-3 or OVCAR3 ovarian cancer cells are tested. Cells are cultured in medium recommended by the supplier (e.g., ATCC or JCRB Cell Bank), at 37° C. in a 5% CO2 environment. For the proliferation assay, cells are plated in the growth medium in 96 well plates. Seeding density is adjusted according to the cell type. 24 hr later, cells are treated, in triplicate or quadruplicate, with test articles prepared in a range of concentrations by series dilution of DMSO stock solutions in growth medium, and typically incubated for three to seven days, with test article-containing medium replaced after three or four days. The number of viable cells is measured using CellTiter Glo assay (CTG, Promega, Madison, WI) or similar. Cell viability data are plotted using GraphPad Prism (GraphPad Software, Inc., San Diego, CA). In addition, a nonlinear regression model with a sigmoidal dose response and variable slope within GraphPad Prism is used to calculate the IC50 value of individual test articles. Similarly, HEK-293 and HeLa calls can also be tested by methods known in the art. • f. Nuclear translocation: LNCaP cells are plated on coverslips in 24 well plates in growth medium. Twenty-four hours after plating, medium is changed to RPMI+1% csFBS and the cells are maintained in this medium for two days. Medium is replaced again and the cells are treated. […]

Human AR = target: T1, Human AR (Homo sapiens, UniProt P10275); assay: AR transactivation (antagonist mode, GRE-LUC luciferase in HEK-293 cells); format: cell-based; conditions: in combination with 0.1 nM R1881, read-out: AR Ant. IC50
T1 construct: expressed in transfected cells; host or cells: HEK-293
T1 sequence (P10275 1-920): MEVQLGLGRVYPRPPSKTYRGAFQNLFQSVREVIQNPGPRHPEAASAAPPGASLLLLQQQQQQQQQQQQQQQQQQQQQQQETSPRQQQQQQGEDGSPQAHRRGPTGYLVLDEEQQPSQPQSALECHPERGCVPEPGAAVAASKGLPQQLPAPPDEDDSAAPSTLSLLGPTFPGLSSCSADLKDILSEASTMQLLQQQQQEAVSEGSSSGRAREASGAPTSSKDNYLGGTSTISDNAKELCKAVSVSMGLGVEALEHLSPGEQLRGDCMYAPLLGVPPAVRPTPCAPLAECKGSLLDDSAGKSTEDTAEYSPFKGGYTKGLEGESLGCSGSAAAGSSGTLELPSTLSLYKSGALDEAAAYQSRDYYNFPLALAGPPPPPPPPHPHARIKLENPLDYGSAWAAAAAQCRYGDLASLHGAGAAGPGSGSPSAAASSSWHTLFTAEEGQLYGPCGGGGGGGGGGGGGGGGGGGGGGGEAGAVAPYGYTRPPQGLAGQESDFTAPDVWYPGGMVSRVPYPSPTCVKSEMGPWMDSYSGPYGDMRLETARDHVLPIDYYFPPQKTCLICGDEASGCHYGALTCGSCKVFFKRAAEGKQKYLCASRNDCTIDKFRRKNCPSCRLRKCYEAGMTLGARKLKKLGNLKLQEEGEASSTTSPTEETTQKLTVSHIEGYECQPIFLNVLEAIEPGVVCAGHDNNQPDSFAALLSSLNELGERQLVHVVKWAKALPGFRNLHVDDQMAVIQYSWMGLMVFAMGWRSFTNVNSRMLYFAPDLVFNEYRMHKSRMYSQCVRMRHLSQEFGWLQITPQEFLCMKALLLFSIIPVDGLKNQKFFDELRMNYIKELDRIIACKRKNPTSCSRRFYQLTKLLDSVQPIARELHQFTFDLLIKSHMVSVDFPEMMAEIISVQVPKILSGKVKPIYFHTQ
Method: as §1

[1] = cell growth inhibition, three days of treatment

Row | SMILES | IC50 (HT-29 cells) [µM] | IC50 (Human AR) [nM] | IC50 (HT-29 cells; [1]) [µM]
1 | CC(O)(CS(=O)(=O)c1ccc(NCCn2cc(CN3CCN(C(=O)c4cc(Cc5n[nH]c(=O)c6ccccc56)ccc4F)CC3)nn2)cc1)C(=O)Nc1ccc(C#N)c(C(F)(F)F)c1 (stereo in doubt) [Compound 1.97, (S)-N-(4-cyano-3-(trifluoromethyl)phenyl)-3-(4-(2-(4-((4-(2-fluoro-5-((4-oxo-3,4-dihydrophthalazin-1-yl)methyl)benzoyl)piperazin-1-yl)methyl)-1H-1,2,3-triazol-1-yl)ethylamino)phenylsulfonyl)-2-hydroxy-2-methylpropanamide] | > 30 | – | –
2 | CC1(C)C(=O)N(c2ccc(C#N)c(C(F)(F)F)c2)C(=S)N1c1ccc(C(=O)NCCCCCC(=O)N2CCN(C(=O)c3cc(Cc4n[nH]c(=O)c5ccccc45)ccc3F)CC2)c(F)c1 [Compound 1.1, 4-(3-(4-cyano-3-(trifluoromethyl)phenyl)-5,5-dimethyl-4-oxo-2-thioxoimidazolidin-1-yl)-2-fluoro-N-(6-(4-(2-fluoro-5-((4-oxo-3,4-dihydrophthalazin-1-yl)methyl)benzoyl)piperazin-1-yl)-6-oxohexyl)benzamide] | 0.3 | 33 | –
3 | C[C@]12CCC(=O)C[C@@H]1CC[C@@H]1[C@@H]2CC[C@]2(C)[C@@H](OCCCCCC(=O)N3CCN(C(=O)c4cc(Cc5n[nH]c(=O)c6ccccc56)ccc4F)CC3)CC[C@@H]12 [Compound 1.2, 4-(3-(4-(6-(((5S,8R,9S,10S,13S,14S,17S)-10,13-dimethyl-3-oxohexadecahydro-1H-cyclopenta[a]phenanthren-17-yl)oxy)hexanoyl)piperazine-1-carbonyl)-4-fluorobenzyl)phthalazin-1(2H)-one] | > 10 | – | –
4 | CC1(C)C(=O)N(c2ccc(C#N)c(C(F)(F)F)c2)C(=S)N1c1ccc(C(=O)NCCCCCCNCc2ccc(-c3[nH]c4cc(F)cc5c4c3CCNC5=O)cc2)c(F)c1 [Compound 1.5, 4-(3-(4-cyano-3-(trifluoromethyl)phenyl)-5,5-dimethyl-4-oxo-2-thioxoimidazolidin-1-yl)-2-fluoro-N-(6-((4-(8-fluoro-1-oxo-2,3,4,6-tetrahydro-1H-azepino[5,4,3-cd]indol-5-yl)benzyl)amino)hexyl)benzamide] | 5 | 750 | –
5 | C[C@](O)(CS(=O)(=O)c1ccc(NCCCCCC(=O)N2CCN(C(=O)c3cc(Cc4n[nH]c(=O)c5ccccc45)ccc3F)CC2)cc1)C(=O)Nc1ccc(C#N)c(C(F)(F)F)c1 [Compound 1.68, (R)-N-(4-cyano-3-(trifluoromethyl)phenyl)-3-(4-(6-(4-(2-fluoro-5-((4-oxo-3,4-dihydrophthalazin-1-yl)methyl)benzoyl)piperazin-1-yl)-6-oxohexylamino)phenylsulfonyl)-2-hydroxy-2-methylpropanamide] | > 10 | 3300 | –
6 | C[C@](O)(COc1ccc(NCCCCCC(=O)N2CCN(C(=O)c3cc(Cc4n[nH]c(=O)c5ccccc45)ccc3F)CC2)cc1)C(=O)Nc1ccc(C#N)c(C(F)(F)F)c1 [Compound 1.83, (S)-N-(4-cyano-3-(trifluoromethyl)phenyl)-3-(4-(6-(4-(2-fluoro-5-((4-oxo-3,4-dihydrophthalazin-1-yl)methyl)benzoyl)piperazin-1-yl)-6-oxohexylamino)phenoxy)-2-hydroxy-2-methylpropanamide] | > 10 | – | –
7 | C[C@]12CCC(=O)C[C@@H]1CC[C@@H]1[C@@H]2CC[C@]2(C)[C@@H](OCCOCC(=O)N3CCN(C(=O)c4cc(Cc5n[nH]c(=O)c6ccccc56)ccc4F)CC3)CC[C@@H]12 [Compound 1.104, 4-(3-(4-(2-(2-((5S,8R,9S,10S,13S,14S,17S)-10,13-dimethyl-3-oxohexadeca hydro-1H-cyclopenta[a]phenanthren-17-yloxy)ethoxy)acetyl)piperazine-1-carbonyl)-4-fluorobenzyl)phthalazin-1(2H)-one] | – | – | 9.3
8 | C[C@]12CCC(=O)C[C@@H]1CC[C@@H]1[C@@H]2CC[C@]2(C)[C@@H](OCC(=O)N3CCN(C(=O)c4cc(Cc5n[nH]c(=O)c6ccccc56)ccc4F)CC3)CC[C@@H]12 [Compound 1.110, 4-(3-(4-(2-((5S,8R,9S,10S,13S,14S,17S)-10,13-dimethyl-3-oxohexadecahydro-1H-cyclopenta[a]phenanthren-17-yloxy)acetyl)piperazine-1-carbonyl)-4-fluorobenzyl)phthalazin-1(2H)-one] | – | – | 9.5
9 | O=C(c1ccc(OCCN2CCN(C(=O)c3cc(Cc4n[nH]c(=O)c5ccccc45)ccc3F)CC2)cc1)c1c(-c2ccc(O)cc2)sc2cc(O)ccc12 [Compound 2.13, 4-(4-fluoro-3-(4-(2-(4-(6-hydroxy-2-(4-hydroxyphenyl)benzo[b]thiophene-3-carbonyl)phenoxy)ethyl)piperazine-1-carbonyl)benzyl)phthalazin-1(2H)-one] | – | – | 6
10 | CCC(=C(c1ccc(O)cc1)c1ccc(OCCN2CCN(C(=O)c3cc(Cc4n[nH]c(=O)c5ccccc45)ccc3F)CC2)cc1)c1ccccc1 [Compound 2.14, 4-(4-fluoro-3-(4-(2-(4-(1-(4-hydroxyphenyl)-2-phenylbut-1-enyl)phenoxy)ethyl)piperazine-1-carbonyl)benzyl)pthalazin-1(2H)-one] | – | – | > 30
